# Measurements published in ChEMBL document CHEMBL3046646, “Regioselective synthesis and cannabinoid receptor binding affinity of N-alkylated 4,5-diaryl-1,2,3-triazoles” (Med Chem Res, 2012).
# Biological target: Cannabinoid receptor 1 (Rattus norvegicus) (UniProt P20272)
# Assay: Displacement of [3H][…] from CB1 receptor in Rattus norvegicus (rat) cerebellum homogenate at 1 uM after 2 hr by scintillation counting
# Type: tissue-based
# Conditions: not given
# Cannabinoid receptor 1 (Rattus norvegicus), sequence (P20272 whole entry): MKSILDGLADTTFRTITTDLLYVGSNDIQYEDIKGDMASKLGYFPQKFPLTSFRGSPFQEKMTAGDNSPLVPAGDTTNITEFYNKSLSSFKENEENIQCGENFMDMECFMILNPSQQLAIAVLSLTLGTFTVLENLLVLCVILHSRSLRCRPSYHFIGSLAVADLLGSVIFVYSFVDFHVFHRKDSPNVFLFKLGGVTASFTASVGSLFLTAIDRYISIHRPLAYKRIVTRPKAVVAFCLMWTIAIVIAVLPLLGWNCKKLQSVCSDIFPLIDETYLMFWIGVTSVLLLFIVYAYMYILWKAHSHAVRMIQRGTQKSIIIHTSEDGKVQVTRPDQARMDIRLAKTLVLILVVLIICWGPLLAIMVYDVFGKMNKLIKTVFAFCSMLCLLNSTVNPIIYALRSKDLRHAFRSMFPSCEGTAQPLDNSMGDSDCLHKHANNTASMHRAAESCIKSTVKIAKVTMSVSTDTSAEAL
row,inhibition [%],SMILES
1,22,CCOC(=O)CCn1nc(-c2ccc(Cl)cc2)c(-c2ccc(Cl)cc2Cl)n1
2,26,N#CCCn1nc(-c2ccc(Cl)cc2)c(-c2ccc(Cl)cc2Cl)n1

# Biological target: Cannabinoid receptor 1 (Rattus norvegicus, UniProt P20272)
# Sequence (P20272 whole entry): as above
# Assay: Displacement of [3H][…] from CB1 receptor in Rattus norvegicus (rat) cerebellum homogenate after 2 hr by scintillation counting
# Type: tissue-based
# Conditions: not given
row,Ki,SMILES
1,ND(Insoluble),CCC/C=C\Cn1nnc(-c2ccc(Cl)cc2Cl)c1-c1ccc(Cl)cc1
2,ND(Insoluble),CCCCCCn1nnc(-c2ccc(Cl)cc2Cl)c1-c1ccc(Cl)cc1
3,ND(Insoluble),C=CCn1nnc(-c2ccc(Cl)cc2Cl)c1-c1ccc(Cl)cc1

# Same assay, conditions: read-out: Ki
row,SMILES,Ki [nM]
1,Clc1ccc(-c2nn(Cc3ccccc3)nc2-c2ccc(Cl)cc2Cl)cc1,230
2,N#CCn1nc(-c2ccc(Cl)cc2)c(-c2ccc(Cl)cc2Cl)n1,232
3,COC(=O)CCn1nc(-c2ccc(Cl)cc2)c(-c2ccc(Cl)cc2Cl)n1,2360
4,OCCn1nc(-c2ccc(Cl)cc2)c(-c2ccc(Cl)cc2Cl)n1,660
5,FCCn1nc(-c2ccc(Cl)cc2)c(-c2ccc(Cl)cc2Cl)n1,79
6,Clc1ccc(-c2c(-c3ccc(Cl)cc3Cl)nnn2Cc2ccccc2)cc1,187
7,COC(=O)Cn1nc(-c2ccc(Cl)cc2)c(-c2ccc(Cl)cc2Cl)n1,855
8,ClCCn1nc(-c2ccc(Cl)cc2)c(-c2ccc(Cl)cc2Cl)n1,80

# Further lines, results first:
row,Ki [nM],SMILES
1,247,COC(=O)Cn1nnc(-c2ccc(Cl)cc2Cl)c1-c1ccc(Cl)cc1
2,152,CCCn1nnc(-c2ccc(Cl)cc2Cl)c1-c1ccc(Cl)cc1
3,421,FCCn1nnc(-c2ccc(Cl)cc2Cl)c1-c1ccc(Cl)cc1
4,163,OCCn1nnc(-c2ccc(Cl)cc2Cl)c1-c1ccc(Cl)cc1

# Biological target: Cannabinoid receptor 1 (Rattus norvegicus) (UniProt P20272)
# Assay: Displacement of [3H][…] from CB1 receptor in Rattus norvegicus (rat) cerebellum homogenate at 100 uM after 2 hr by scintillation counting
# Type: tissue-based
# Conditions: not given
row,inhibition [%],SMILES
1,30,CCCCOC(=O)n1nc(-c2ccc(Cl)cc2)c(-c2ccc(Cl)cc2Cl)n1
